{"source": "patent US5240961A", "about": "“Method of treating reduced insulin-like growth factor and bone loss associated with aging” (priority 1992, dated 1993)", "key": {"serum carnitine [1]": {"tested_on": "serum carnitine", "assay": "Serum carnitine levels in aged mice fed L-carnitine", "assay_type": "in vivo, mouse (BALB/c)", "conditions": "50 mg/kg/day", "protocol": "(§1) The present invention is further explained by the following examples which should not be construed by way of limiting the scope of the present invention. In the following examples, serum carnitine levels were determined by the method of R. Parvin et al., Anal. Biochem., vol. 79 (1979) pp. 190-201. Serum IGF-1 concentrations were measured by immunoradiometric assay, for example, by IRMA Kit available from Diagnostic Systems Laboratories, Inc., Webster, Texas. Serum osteocalcin levels were measured according to the method of Grunaberg et al., Meth. Enzymology, vol 107 (1984) 516, and which is embodied in an osteocalcin kit available from Biomedical Technologies, Inc., Stoughton, Mass. All mice used in the animal studies were BALB/c strain which is commercially available.\nForty aged mice were separated into two groups. After an initial acclimatizing period of one week, one group was fed a diet with L-carnitine supplementation for six weeks and the other was fed normal, unsupplemented feed (control). Each mouse in the test group was fed a daily oral dose of L-carnitine of about 50 mg/kg of body weight. The average daily food for each mouse was determined by weighing the food initially placed in the food bin and weighing the remaining food. The feed was supplemented with L-carnitine so that each mouse in the test group consumed the test dose (50 mg/kg) of L-carnitine each day. Mouse blood was sampled prior to beginning of the trial (pretreatment), at the end of three weeks, and at six weeks (posttreatment), and was evaluated for serum osteocalcin and carnitine levels."}, "serum osteocalcin [2]": {"tested_on": "serum osteocalcin", "assay": "Osteocalcin response to L-carnitine in young mice", "assay_type": "in vivo, mouse (BALB/c)", "protocol": "as §1\n(§2) Similar tests were performed on six young mice, i.e., 2 months 5 months of age. One group (n=3) was fed a diet with L-carnitine supplementation for three months, the other (n=3) was fed normal, unsupplemented feed (control). Each mouse in the test group was fed a daily oral dose of L-carnitine of about 50 mg/kg of body weight. Mouse blood was sampled prior to beginning of the trial (pretreatment) i.e., at two months of age, and at 5 months of age, and was evaluated for serum osteocalcin and carnitine levels."}, "[3]": {"assay": "Serum carnitine levels in young mice fed L-carnitine", "assay_type": "in vivo, mouse (BALB/c)", "conditions": "mouse, po, 50 mg/kg/day, 50 mg/kg/day oral", "protocol": "as §1, §2"}, "serum osteocalcin [4]": {"tested_on": "serum osteocalcin", "assay": "Comparative effects of L-carnitine, acetyl carnitine and γ-butyrobetaine on serum osteocalcin in adult mice", "assay_type": "in vivo, mouse (BALB/c male)", "conditions": "for Osteocalcin: actual intake estimated about half", "protocol": "as §1\n(§3) Tests were performed to compare the effects on serum osteocalcin of diet supplementation with L-carnitine, its precursor, γ-butyrobetaine (available from Aldrich Chemical Co.) and one of its metabolites, acetylcarnitine (available from Life Science Resources, Milwaukee, Wis. 53223). Twenty adult mice, i.e., three months of age, (BALB/c male mice) were divided into seven groups. Each of the groups was fed diets as indicated hereinbelow for twelve weeks. One group (n=3) was fed a diet with L-carnitine supplementation at a dose of 50 mg/kg of body weight each day, while the second group (n=3) was fed L-carnitine at a daily dose of about 100 mg/kg. The third group (n=2) was fed a diet with acetylcarnitine supplementation at a daily dose of 50 mg/kg, while the fourth group (n=3) was fed a daily dose of 100 mg/kg of this compound. The fifth group (n=2) was fed a daily dose of 50 mg/kg of γ-butyrobetaine supplementation,while the sixth group was fed a daily dose of 100 mg/kg of γ-butyrobetaine. The seventh group (n=4) was fed normal, unsupplemented feed (control). Mouse blood was sampled prior to beginning of the trial (pretreatment), at six weeks, and at the end of the trial (twelve weeks). The samples were evaluated for serum osteocalcin levels at six and twelve weeks. Total carnitine was determined at twelve weeks."}, "[5]": {"assay": "Serum carnitine at 12 weeks in adult mice fed L-carnitine, acetyl carnitine or γ-butyrobetaine", "design": "species or system mouse (BALB/c male)", "conditions": "mouse, in vivo, po, Serum carnitine", "protocol": "as §1, §3"}, "serum IGF-1 [6]": {"tested_on": "serum IGF-1", "assay": "IGF-1 response to L-carnitine supplementation in healthy adults over 60 (Example 4)", "assay_type": "in vivo, human", "conditions": "three months", "protocol": "as §1\n(§4) Seven adults from Example 3 agreed to receive a daily dosage of L-carnitine of 2 g/day, self-administered orally, for three months. Doses were administered four times daily, and each dose consisted of two 250 mg tablets. Of the seven individuals, two individuals dropped out of the study due to unrelated illness; thus, five remained in the study to completion. The following were evaluated by pretreatment and posttreatment comparisons: serum carnitine and serum IGF-1 by known methods, and bone mineral contents by bone scan of thoracic region, i.e., thoracic vertebrae, on a NORLAND scanner."}, "[7]": {"assay": "Serum carnitine after oral L-carnitine in healthy adults over 60 (Example 4)", "assay_type": "in vivo, human", "conditions": "human, serum, po, 2 g/day, individual subjects, 2 g/day oral, three months", "protocol": "as §1, §4"}, "serum carnitine [8]": {"tested_on": "serum carnitine", "assay": "Serum carnitine after oral L-carnitine in healthy adults over 60 (Example 4)", "assay_type": "in vivo, human", "conditions": "individual subjects, 2 g/day oral, three months; for concentration: 131400 min", "protocol": "as §1, §4"}, "[9]": {"tested_on": "bone mineral content of thoracic vertebrae", "assay": "Bone mineral content of thoracic vertebrae by bone scan (Example 4)", "assay_type": "in vivo, human", "protocol": "as §4"}, "serum IGF-1 [10]": {"tested_on": "serum IGF-1", "assay": "Serum IGF-1 after oral L-carnitine, double-blind study in patients over 60 (Example 5)", "assay_type": "in vivo, human", "conditions": "for IGF-1: individual subjects 010-019, 2 g/day oral; for average serum IGF-1: treatment group average", "protocol": "as §1\nNineteen patients (over age 60) were enrolled in a preliminary double-blindstudy to establish the effect of oral L-carnitine treatment on serum IGF-1 and osteocalcin levels. Baseline, i.e., pretreatment, levels of serum IGF-1, osteocalcin and carnitine were measured by known methods. The patients were divided into two groups, control (n=9; subjects 001-009 in Table 5 below) and treatment (n=10; subjects 010-019 in Table 5 below). The treatment group received a daily dosage of 2 g of L-carnitine orally, self-administered, in four separate doses of two 250 mg tablets taken four times per day, for twelve weeks. The control group were given placebo, e.g., simple sugar. Serum samples were drawn every four weeks, and serum carnitine, IGF-1 and osteocalcin were determined."}, "[11]": {"conditions": "read-out: Carnitine, Free, posttreatment"}, "[12]": {"conditions": "read-out: Carnitine, Total, posttreatment"}}, "note": "“And” between values parts separate entries of the source, which are not always exact repeats. Equal values may be shown once. “Also recorded” adds a separate entry of the source. Read-outs that look alike come from different tables or passages of the source.", "data": [{"smiles": "C[N+](C)(C)C[C@H](O)CC(=O)[O-]", "note": "[L-carnitine]", "values": [{"measurement": "carnitine levels vs control group", "setting": "serum carnitine [1]", "value": "higher carnitine levels than the control group"}, {"measurement": "Osteocalcin", "setting": "serum osteocalcin [2]; 5 mos., 50 mg/kg/day oral for three months", "value": 256, "unit": "ng/mL"}, {"measurement": "osteocalcin vs control", "setting": "serum osteocalcin [2]; five months, 50 mg/kg/day", "value": "maintained a higher level of osteocalcin at five months"}, {"measurement": "concentration at 2190 h", "setting": "[3]; read-out: Serum Carnitine, Free", "value": 60.2, "unit": "µM"}, {"measurement": "concentration at 2190 h", "setting": "[3]; read-out: Serum Carnitine, Total", "value": 84.2, "unit": "µM"}, {"measurement": "significance of difference in osteocalcin vs control (p, student's t test)", "setting": "serum osteocalcin [4]; 50 mg/kg/day", "value": "< 0.01"}, {"measurement": "Osteocalcin", "setting": "serum osteocalcin [4]; 50 mg/kg/day, 6 wks", "value": "151 ng/mL and 151 ± 4 ng/mL"}, {"measurement": "Osteocalcin", "setting": "serum osteocalcin [4]; 50 mg/kg/day, 12 wks", "value": 153, "unit": "ng/mL"}, {"measurement": "significance of difference in osteocalcin vs control (p, student's t test)", "setting": "serum osteocalcin [4]; 100 mg/kg/day", "value": "< 0.05"}, {"measurement": "Osteocalcin", "setting": "serum osteocalcin [4]; 100 mg/kg/day, 6 wks", "value": "199 ng/mL and 199 ± 7 ng/mL"}, {"measurement": "Osteocalcin", "setting": "serum osteocalcin [4]; 100 mg/kg/day, 12 wks", "value": 115, "unit": "ng/mL"}, {"measurement": "effect on osteocalcin", "setting": "serum osteocalcin [4]; adult mice, 50 and 100 mg/kg/day", "value": "stimulate osteocalcin production in adult mice; also recorded: maintained osteocalcin blood levels"}, {"measurement": "concentration at 2016 h", "setting": "[5]; 50 mg/kg/day, Free", "value": 52.1, "unit": "µM"}, {"measurement": "concentration at 2016 h", "setting": "[5]; 50 mg/kg/day, Total", "value": 66, "unit": "µM"}, {"measurement": "concentration at 2016 h", "setting": "[5]; 100 mg/kg/day, Free", "value": 41.6, "unit": "µM"}, {"measurement": "concentration at 2016 h", "setting": "[5]; 100 mg/kg/day, Total", "value": 59.5, "unit": "µM"}, {"measurement": "significance of IGF-1 increase (p, paired comparisons)", "setting": "serum IGF-1 [6]; 2 g/day oral", "value": "≤ 0.05"}, {"measurement": "IGF-1, posttreatment", "setting": "serum IGF-1 [6]; individual subjects 001-005, 2 g/day oral", "value": "396 ng/mL and 280 ng/mL and 148 ng/mL and 270 ng/mL and 264 ng/mL"}, {"measurement": "mean IGF-1 after treatment", "setting": "serum IGF-1 [6]; mean, 2 g/day oral, pretreatment mean 170", "value": 272, "unit": "ng/mL"}, {"measurement": "concentration at 2190 h", "setting": "[7]; [11]", "value": 77.2, "unit": "µM"}, {"measurement": "concentration at 2190 h", "setting": "[7]; [12]", "value": 102, "unit": "µM"}, {"measurement": "concentration", "setting": "serum carnitine [8]; [11]", "value": "57 µM and 55.4 µM and 38.6 µM and 44.8 µM"}, {"measurement": "concentration", "setting": "serum carnitine [8]; [12]", "value": "70.7 µM and 68.9 µM and 54.7 µM and 73.4 µM"}, {"measurement": "Carnitine E/F, posttreatment", "setting": "serum carnitine [8]; ratio esterified/free", "value": "0.32 and 0.24 and 0.42 and 0.64"}, {"measurement": "bone mineral content of the thoracic vertebral region", "setting": "[9]; all patients, after treatment", "value": "all patients demonstrated an increase in bone mineral content of the thoracic vertebral region"}, {"measurement": "Bone mineral content, post treatment", "setting": "[9]; individual subjects, 2 g/day oral, three months", "value": "427.0 g and 1118.4 g and 986.1 g and 736.2 g and 887.7 g"}, {"measurement": "Bone mineral content, change", "setting": "[9]; individual subjects, post vs pre treatment, 2 g/day oral, three months", "value": "+3.85% and +1.39% and +5.69% and +0.72% and +7.35%"}, {"measurement": "IGF-1 vs control at eight and twelve weeks, significance", "setting": "serum IGF-1 [10]; eight and twelve weeks", "value": "just below significance"}, {"measurement": "correlation between pretreatment IGF-1 and increase in IGF-1", "setting": "serum IGF-1 [10]; five treated patients with pretreatment IGF-1 under 200 ng/ml, four weeks", "value": -0.654}, {"measurement": "serum IGF-1 after treatment", "setting": "serum IGF-1 [10]; four, eight and twelve week intervals, 1 unit=240 ng", "value": "above 500 U/L"}, {"measurement": "IGF-1", "setting": "serum IGF-1 [10]; 4 weeks", "value": "118 ng/mL and 192 ng/mL and 62 ng/mL and 213 ng/mL and 305 ng/mL and 318 ng/mL and 185 ng/mL and 178 ng/mL and 244 ng/mL and 173 ng/mL"}, {"measurement": "IGF-1", "setting": "serum IGF-1 [10]; 8 weeks", "value": "147 ng/mL and 197 ng/mL and 248 ng/mL and 157 ng/mL and 329 ng/mL and 201 ng/mL and 163 ng/mL and 168 ng/mL"}, {"measurement": "IGF-1", "setting": "serum IGF-1 [10]; 12 weeks", "value": "108 ng/mL and 157 ng/mL and 179 ng/mL and 260 ng/mL and 185 ng/mL and 207 ng/mL"}, {"measurement": "average serum IGF-1", "setting": "serum IGF-1 [10]; eight weeks", "value": 200.8, "unit": "ng/mL"}, {"measurement": "average serum IGF-1", "setting": "serum IGF-1 [10]; four weeks", "value": 214.0, "unit": "ng/mL"}, {"measurement": "average serum IGF-1", "setting": "serum IGF-1 [10]; twelve weeks", "value": 193.7, "unit": "ng/mL"}, {"measurement": "IGF-1 response", "setting": "serum IGF-1 [10]; twelve week test period", "value": "increased in the carnitine treatment group; also recorded: the lower the baseline level of IGF-1, the greater the increase in IGF-1; also recorded: restored and maintained IGF-1 levels at the normal range"}]}]}
